Results on 17 compounds are retold here after paper PMC6271602, “PBDE: Structure-Activity Studies for the Inhibition of Hepatitis C Virus NS3 Helicase” (Molecules, 2014).

The target of data set [1] is T1, NS3 ATPase activity (HCV NS3 protein) (Hepatitis C virus genotype 1b, UniProt Q9WMX2). Put plainly: Radioisotope labeling ATP hydrolysis (ATPase) assay. The note with it: for NS3 ATPase inhibition (result in words): structure-activity discussion of Table 2. The data set is classed as biochemical. The protocol:
(§1) Following our previous report, unless otherwise stated, the standard assay reaction (10 μL) contained the following components: 25 mM MOPS-NaOH (pH 7.0), 1 mM DTT, 5 mM MgCl2, 5 mM CaCl2, 1 mM [γ-^32P] ATP, 300 nM NS3, and 0.1 μg/μL poly(U) with serial dilution of the tested compounds in DMSO. Samples were incubated at 37 °C for 10 min, and the reaction was terminated by adding 15 μL of stop solution (10 mM EDTA). A small portion (2 μL) of reaction mixture was spotted on a PEI-cellulose TLC plate (Merck Millipore, Darmstadt, Germany) and developed by ascending chromatography in 0.75 M LiCl/1 M formic acid solution for 25 min. The TLC plate was then air-dried, and applied to autoradiography measured by an Image Reader FLA-9000 and quantified by Multi Gauge V3.11 software (Fujifilm, Tokyo, Japan). For the bacterial alkaline phosphatase assay, the buffer provided with the kit (Takara Bio, Otsu, Japan) was used, and then subjected to the assay as described above.

For data set [2], the system named is subgenomic replicon RNA of genotype 1b N strain. Put plainly: HCV replication assay (subgenomic replicon, luciferase). The data set is classed as cell-based. The settings on record: Hepatitis C virus, genotype 1b strain N replicon, 72 h, read-out: suppression of HCV replication, EC50. The procedure: The cell lines harboring the subgenomic replicon RNAs of genotype 1b strain N [27] were seeded at 2 × 10^4 cells per well in a 48-well plate 24 h before treatment. The cells were treated with PBDE at various concentrations for 72 h and lysed in cell culture lysis reagent (Promega). A luciferase assay system (Promega) was used to determine the luciferase activity, and the luminescence was measured using Luminescencer-JNR AB-2100 (ATTO, Tokyo, Japan), corresponding to the expression level of the HCV replicon.

Data set [3] addresses T1, NS3 ATPase activity (HCV NS3 protein). Kind of data set: Radioisotope labeling ATP hydrolysis (ATPase) assay. The data set is classed as biochemical. The note with it: PBDE 0.1 mM, NS3 600 nM, 1 mM ATP.
Data set [4] concerns the target T2, bacterial alkaline phosphatase (Escherichia coli, UniProt P00634).
T2 construct: purchased Takara Bio BAPC75
Kind of data set: ATPase assay with bacterial alkaline phosphatase (specificity). The data set is classed as biochemical. The note with it: highest concentration tested, 200 μM. The procedure:
as §1

Another data set concerns the target HCV NS3 helicase (Hepatitis C virus genotype 1b, UniProt Q9WMX2). The format is biochemical. The note with it: FRET screening; strongest of 41 extracts.
The next data set is described as follows: Toxicity assay (MTS). The format is cell-based. The settings on record: cell lines harboring the subgenomic replicon RNAs, replicon cells, read-out: cytotoxic effect, CC50. The procedure: MTS assay was carried out to determine cytotoxicity using a CellTiter 96 aqueous one-solution cell proliferation assay kit (Promega) according to the manufacturer’s instructions.

The target of a further data set is NS3 RNA binding (Hepatitis C virus genotype 1b, UniProt Q9WMX2). Put plainly: Gel mobility shift assay (NS3 binding to ssRNA). The procedure: GMSA was performed with slight modification as described previously. In brief, [γ-^32P] ATP-labeled single-stranded RNA (0.4 nM) was incubated in a buffer containing 30 mM Tris-HCl pH 7.5, 100 mM NaCl, 2 mM MgCl2, 1 mM DTT, 20 U of RNasin plus (Promega) in the presence of 300 nM NS3 protein with serial dilution of PBDE in DMSO at room temperature for 15 min in a final reaction volume of 20 μL. The protein-RNA complexes were loaded onto a 6% native-PAGE (acrylamide:bis = 19:1) and after electrophoresis in TBE buffer, the labeled RNA bands were visualized and quantified with an Image Reader FLA-9000 (Fujifilm) and Multi Gauge V3.11 software (Fujifilm), respectively.

Setting [5] is: 300 nM NS3, 1 mM [γ-32P] ATP, read-out: NS3 ATPase Inhibition IC50.

pEC50, pIC50: −log10 of the molar value. Where two headings read alike, the source gives them in different places. A value given as a limit tells only on which side of the number the result lay.

T1 sequence (Q9WMX2 1027-1657): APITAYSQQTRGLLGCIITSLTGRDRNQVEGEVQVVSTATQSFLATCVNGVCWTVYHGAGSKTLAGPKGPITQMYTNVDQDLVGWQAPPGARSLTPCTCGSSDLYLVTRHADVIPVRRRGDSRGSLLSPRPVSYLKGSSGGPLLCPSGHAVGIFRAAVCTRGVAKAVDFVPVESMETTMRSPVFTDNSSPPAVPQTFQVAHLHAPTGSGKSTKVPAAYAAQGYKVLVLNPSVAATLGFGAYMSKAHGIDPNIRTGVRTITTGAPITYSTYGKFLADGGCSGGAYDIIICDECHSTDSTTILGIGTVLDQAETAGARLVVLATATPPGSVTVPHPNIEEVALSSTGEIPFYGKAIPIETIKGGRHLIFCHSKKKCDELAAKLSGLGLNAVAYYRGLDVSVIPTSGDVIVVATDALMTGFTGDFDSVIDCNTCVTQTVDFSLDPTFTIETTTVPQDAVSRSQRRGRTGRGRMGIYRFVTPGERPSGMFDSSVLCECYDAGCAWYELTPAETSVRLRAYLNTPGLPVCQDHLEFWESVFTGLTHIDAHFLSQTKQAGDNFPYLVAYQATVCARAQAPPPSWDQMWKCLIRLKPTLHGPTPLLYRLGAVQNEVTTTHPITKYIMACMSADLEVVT
T2 sequence (P00634 22-471): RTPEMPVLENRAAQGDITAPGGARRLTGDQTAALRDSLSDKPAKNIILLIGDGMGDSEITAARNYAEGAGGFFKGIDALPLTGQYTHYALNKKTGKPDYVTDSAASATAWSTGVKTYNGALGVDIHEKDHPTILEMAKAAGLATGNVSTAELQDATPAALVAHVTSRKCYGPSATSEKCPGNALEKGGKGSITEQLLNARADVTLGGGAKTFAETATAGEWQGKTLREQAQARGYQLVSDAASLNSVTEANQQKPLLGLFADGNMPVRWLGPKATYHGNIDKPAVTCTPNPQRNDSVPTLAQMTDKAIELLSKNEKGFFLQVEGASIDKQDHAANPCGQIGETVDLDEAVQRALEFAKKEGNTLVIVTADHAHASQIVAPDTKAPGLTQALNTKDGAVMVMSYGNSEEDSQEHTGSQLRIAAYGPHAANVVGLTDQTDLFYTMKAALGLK
Chain of NS3 RNA binding (Q9WMX2 1027-1657): as the sequence (Q9WMX2 1027-1657) above
Chain of HCV NS3 helicase (Q9WMX2 1027-1657): as above

As to `Oc1cc(Br)cc(Br)c1Oc1ccc(Br)cc1Br` [Compound 1, 6-hydroxy-2,2',4,4'-tetrabromodiphenyl ether], the pIC50 was 4.10 in data set [1] and 4.17 on NS3 RNA binding. Besides, the pEC50 in data set [2] was 5.48. Also, the “NS3 ATPase inhibition in presence and absence of poly(U) RNA” value in data set [3] is “significantly active in both the presence and absence of poly(U)”. In addition, the “inhibition of ATPase activity of bacterial alkaline phosphatase” value in data set [4] is “no inhibition”. Moreover, the “inhibition of NS3 helicase activity” value against HCV NS3 helicase was found to be 37%. For the same compound, in the data set “Toxicity assay (MTS)”, the CC50 at 72 h was above 5 µM.

Regarding `COc1cc(Br)cc(Br)c1Oc1ccc(Br)cc1Br` [Compound 2, PBDE methyl ether], in data set [1], the pIC50 is below 3.70 and the “NS3 ATPase inhibition (result in words)” value is on record as “complete loss of the inhibitory activity”.

For `Oc1c(Br)cc(Br)cc1-c1cc(Br)cc(Br)c1O` [Compound 3, Bromophene], in data set [1], the pIC50 is 4.03 and the “NS3 ATPase inhibition (result in words)” value is “remained at the same level as that of PBDE (1)”.

As to `Oc1cc(Cl)ccc1Oc1ccc(Cl)cc1Cl` [Compound 4, triclosan, reference compound], in data set [1], the pIC50 was 3.82 and the “NS3 ATPase inhibition (result in words)” value was “moderate levels of inhibition”.

As to `Oc1c(Br)cc(Br)cc1Br` [Compound 5, 2,4,6-tribromophenol], in data set [1], the pIC50 was below 3.70 and the “NS3 ATPase inhibition (result in words)” value is recorded as “did not exhibit the inhibitory activity”.

Regarding `CC(C)(c1cc(Br)c(O)c(Br)c1)c1cc(Br)c(O)c(Br)c1` [Compound 6, 3,3',5,5'-tetrabromobisphenol A], in data set [1], the pIC50 is 3.92 and the “NS3 ATPase inhibition (result in words)” value is “same level of inhibition as that of bromophene 3”.

For `Oc1ccccc1-c1ccccc1` [Compound 7, O-hydroxybiphenyl], in data set [1], the pIC50 is below 3.70 and the “NS3 ATPase inhibition (result in words)” value is on record as “loss of the inhibitory activity”.

In the case of `Oc1ccc2cc(Br)ccc2c1-c1c(O)ccc2cc(Br)ccc12` [Compound 8, (R)-(−)-6,6'-dibromo-1,1'-bi-2-naphthol], the pIC50 in data set [1] (setting [5]) was 4.27. The “NS3 ATPase inhibition (result in words)” value in data set [1] is reported as “most potent activity”.

With `CC(C)(c1cc(Cl)c(O)c(Cl)c1)c1cc(Cl)c(O)c(Cl)c1` [Compound 9, tetrachlorobisphenol A], in data set [1], the negative logarithm of the IC50 (pIC50) is 4.03 and the “NS3 ATPase inhibition (result in words)” value was “same level of inhibition as that of bromophene 3”.

For `Oc1ccc2cc(Br)ccc2c1Br` [Compound 10, 1,6-dibromo-2-naphthol], in data set [1], the pIC50 was below 3.70 and the “NS3 ATPase inhibition (result in words)” value is listed as “did not exhibit the inhibitory activity”.

For `Oc1c(F)c(F)c(-c2c(F)c(F)c(F)c(F)c2F)c(F)c1F` [Compound 11, 2,3,5,6-tetrafluoro-4-(pentafluorophenyl)phenol], in data set [1], the negative-log IC50 (pIC50) is below 3.70 and the “NS3 ATPase inhibition (result in words)” value was “inactive”.

Turning to `Oc1c(Br)cc2ccccc2c1-c1c(O)c(Br)cc2ccccc12` [Compound 12, (R)-(+)-3-3'-dibromo-1,1'-bi-2-naphthol], in data set [1] (setting [5]), the pIC50 is below 3.70. Moreover, the “NS3 ATPase inhibition (result in words)” value in data set [1] is given as “no activity”.

As for `Oc1c(Br)cc2c(c1-c1c(O)c(Br)cc3c1CCCC3)CCCC2` [Compound 13, (R)-(+)-3,3'-dibromo-5,5',6,6',7,7',8,8'-octahydro-1,1'-bi-2,2'-naphthalenediol], in data set [1] (setting [5]), the pIC50 was below 3.70. Also, the “NS3 ATPase inhibition (result in words)” value in data set [1] is “no activity”.

On to `CC(C)(c1cc(Br)c(OCCO)c(Br)c1)c1cc(Br)c(OCCO)c(Br)c1` [Compound 14, 4,4'-isopropylidenebis[2-(2,6-dibromophenoxy)ethanol]], for which, in data set [1], the pIC50 was below 3.70 and the “NS3 ATPase inhibition (result in words)” value is reported as “loss of activity”.

Take `Oc1ccc(Cl)cc1-c1cc(Cl)c(Cl)c(Cl)c1Cl` [Compound 15, 2-Hydroxy-2',3',4',5,5'-pentachlorobiphenyl]: in data set [1], the pIC50 is 4.27 and the “NS3 ATPase inhibition (result in words)” value was “most potent inhibitory activity of all the analogs in this study”.

`Oc1c(-c2ccccc2)cc(-c2ccc(Br)cc2)cc1-c1ccccc1` [Compound 16, 4-(4-bromophenyl)-2,6-diphenylphenol]: the pIC50 in data set [1] (setting [5]) was below 3.70. The “NS3 ATPase inhibition (result in words)” value in data set [1] is “did not show inhibitory activity”.

As to `Brc1ccc(Oc2ccc(Br)cc2Br)c(Br)c1` [Compound 17, 2,2',4,4'-tetrabromodiphenyl ether], in data set [1], the pIC50 was below 3.70 and the “NS3 ATPase inhibition (result in words)” value was “complete loss of the inhibitory activity”.
